Experiment in all cases: Growth inhibitory activity against Ba/F3 cell line
What all share (assay type): cell-based

One assay concerns Parental Ba/F3 cells. The note with it: BaF3; Parental Ba/F3 with mouse IL-3 1 ng/mL; 72 hours; cell titer glo. The procedure: (§1) A Ba/F3 cell line expressing an FLT3 mutation gene was cultured in a culture solution including 90% RPMI, 10% FBS, and an antibiotic (Welgene). 100 uL of the Ba/F3 cell line was put into each of 5,000 wells of a TC-treated 96 well plate (SPL), and then 1 uL of a test compound diluted in dimethylsulfoxide (diluted for each 3 paint from a concentration of 1 mM, total 10 concentrations) was each injected thereinto. Thereafter, the resulting cell lines were incubated in a cell culture incubator for 72 hours. 50 uL of a cell titer glo (Promega) solution was added thereto, the resulting mixture was stored at room temperature for 10 minutes, and then the light emission intensity was measured by using a reader (Envision, PerkinElmer). The light emission intensity was shown as a graph for each final concentration of the test compound, and the GI50 value was obtained by using a Prism 5.0 (GraphPad) software.
A parental Ba/F3 cell line having no FLT3 mutation gene was cultured by using a culture solution supplemented with mouse IL-3 (R&D Systems), such that a final concentration became 1 ng/mL in the culture solution including 90% RPMI, 10% FBS, and an antibiotic (Welgene). The activity was measured by a method which is the same as described above.

Another assay concerns the target T1, FLT3-ITD Ba/F3 cells (Homo sapiens, UniProt P36888, cells depend on it, form not given).
T1 sequence (P36888 1-993): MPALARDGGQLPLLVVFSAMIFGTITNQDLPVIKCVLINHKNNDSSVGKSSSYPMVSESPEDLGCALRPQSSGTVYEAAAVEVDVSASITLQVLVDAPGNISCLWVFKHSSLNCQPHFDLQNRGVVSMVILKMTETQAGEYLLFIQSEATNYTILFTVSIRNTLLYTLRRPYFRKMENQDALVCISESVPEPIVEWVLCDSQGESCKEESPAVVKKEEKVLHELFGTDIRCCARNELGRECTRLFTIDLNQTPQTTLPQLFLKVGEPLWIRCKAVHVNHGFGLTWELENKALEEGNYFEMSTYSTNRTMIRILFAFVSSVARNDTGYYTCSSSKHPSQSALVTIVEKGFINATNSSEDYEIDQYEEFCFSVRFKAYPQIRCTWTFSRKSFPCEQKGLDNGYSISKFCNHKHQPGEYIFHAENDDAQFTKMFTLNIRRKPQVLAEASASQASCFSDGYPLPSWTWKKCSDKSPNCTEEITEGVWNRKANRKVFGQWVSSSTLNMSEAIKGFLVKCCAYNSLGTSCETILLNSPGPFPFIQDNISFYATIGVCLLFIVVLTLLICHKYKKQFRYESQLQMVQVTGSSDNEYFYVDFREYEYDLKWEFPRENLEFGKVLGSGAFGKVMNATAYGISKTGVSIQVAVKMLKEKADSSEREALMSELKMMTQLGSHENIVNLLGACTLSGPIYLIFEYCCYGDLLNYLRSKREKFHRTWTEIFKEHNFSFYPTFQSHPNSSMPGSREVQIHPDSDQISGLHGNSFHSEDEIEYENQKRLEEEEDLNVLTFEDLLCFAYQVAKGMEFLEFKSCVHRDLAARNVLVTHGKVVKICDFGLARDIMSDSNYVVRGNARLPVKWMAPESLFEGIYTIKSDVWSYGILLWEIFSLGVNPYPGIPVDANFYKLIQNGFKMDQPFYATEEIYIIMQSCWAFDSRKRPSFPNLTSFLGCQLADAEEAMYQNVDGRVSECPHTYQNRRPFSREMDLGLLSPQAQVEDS
The conditions noted are these: Ba/F3 expressing FLT3-ITD; 72 hours; cell titer glo; read-out: IC50 (uM) FLT3-ITD. The procedure: as §1
In general terms: ATP-based viability assays read luminescence as a measure of living cells.

In assay [1] the target is T2, FLT3-ITD-F691L Ba/F3 cells (Homo sapiens, UniProt P36888, F691L, cells depend on it, form not given).
T2 sequence (P36888 1-993 F691L): T1 sequence (P36888 1-993) with F691L
The note with it: Ba/F3 expressing FLT3-ITD-F691L; 72 hours; cell titer glo; read-out: IC50 (uM) FLT3-ITD-F691L. How it is done: as §1

Changes are numbered by the printed parent chain. Where a name gives a salt, the structure may show the parent alone. Where only a bound is given, the exact number is not on record here.

With `NC(=O)Nc1cc(C#Cc2ccccc2)sc1C(=O)N[C@H]1CCCNC1` [Example 2, (S)-5-(phenylethynyl)-N-(piperidin-3-yl)-3-ureidothiophene-2-carboxamide], the IC50 – broadly, the point on the concentration scale where inhibition reaches its midpoint – in the assay with Parental Ba/F3 cells is 0.159 µM. In addition, the GI50 is under 0.001 µM at FLT3-ITD Ba/F3 cells and 0.004 µM in assay [1].

For the compound `NC(=O)Nc1cc(C#Cc2cccnc2)sc1C(=O)N[C@H]1CCCNC1` [Example 3, (S)—N-(piperidin-3-yl)-5-(pyridin-3-ylethynyl)-3-ureidothiophene-2-carboxamide], in the assay with Parental Ba/F3 cells, the IC50 was 6.46 µM. The figures for the GI50 (at FLT3-ITD Ba/F3 cells; in assay [1]) were under 0.005 µM and 0.099 µM, respectively.

As for `NC(=O)Nc1cc(C#Cc2ccncc2)sc1C(=O)N[C@H]1CCCNC1` [Example 4, (S)—N-(piperidin-3-yl)-5-(pyridin-4-ylethynyl)-3-ureidothiophene-2-carboxamide], the IC50 in the assay on Parental Ba/F3 cells is 24 µM. Also, the GI50 on FLT3-ITD Ba/F3 cells is 0.016 µM; in assay [1], 1.1 µM.

Turning to `NC(=O)Nc1cc(C#Cc2cccc([N+](=O)[O-])c2)sc1C(=O)N[C@H]1CCCNC1` [Example 5, (S)-5-((3-nitrophenyl)ethynyl)-N-(piperidin-3-yl)-3-ureidothiophene-2-carboxamide], the IC50 in the assay with Parental Ba/F3 cells stood at 2.06 µM. Also, the results for the GI50 (on FLT3-ITD Ba/F3 cells; in assay [1]) were under 0.005 µM and 0.062 µM, respectively.

`N#Cc1cccc(C#Cc2cc(NC(N)=O)c(C(=O)N[C@H]3CCCNC3)s2)c1` [Example 6, (S)-5-((3-cyanophenyl)ethynyl)-N-(piperidin-3-yl)-3-ureidothiophene-2-carboxamide]: in the assay on Parental Ba/F3 cells, the IC50 worked out at 1.59 µM. Besides, the GI50 on FLT3-ITD Ba/F3 cells was under 0.005 µM; in assay [1], 0.055 µM.

Regarding `NC(=O)Nc1cc(C#Cc2ccc([N+](=O)[O-])cc2)sc1C(=O)N[C@H]1CCCNC1` [Example 7, (S)-5-((4-nitrophenyl)ethynyl)-N-(piperidin-3-yl)-3-ureidothiophene-2-carboxamide], the IC50 with Parental Ba/F3 cells stood at 1.86 µM. Besides, the GI50 is under 0.005 µM on FLT3-ITD Ba/F3 cells and 0.089 µM in assay [1].

Consider `NC(=O)Nc1cc(C#Cc2ccc(Cl)cc2)sc1C(=O)N[C@H]1CCCNC1` [Example 8, (S)-5-((4-chlorophenyl)ethynyl)-N-(piperidin-3-yl)-3-ureidothiophene-2-carboxamide], for which, in the assay with Parental Ba/F3 cells, the IC50 was 0.36 µM. In addition, the GI50 at FLT3-ITD Ba/F3 cells was 0.001 µM; in assay [1], 0.013 µM.

For `NC(=O)Nc1cc(C#Cc2ccc(F)cc2)sc1C(=O)N[C@H]1CCCNC1` [Example 9, (S)-5-((4-fluorophenyl)ethynyl)-N-(piperidin-3-yl)-3-ureidothiophene-2-carboxamide], the IC50 in the assay with Parental Ba/F3 cells was found to be 0.429 µM. The values for the GI50 (on FLT3-ITD Ba/F3 cells; in assay [1]) were under 0.001 µM and 0.005 µM, respectively.

With `NC(=O)Nc1cc(C#Cc2ccccn2)sc1C(=O)N[C@H]1CCCNC1` [Example 10, (S)—N-(piperidin-3-yl)-5-(pyridin-2-ylethynyl)-3-ureidothiophene-2-carboxamide], in the assay with Parental Ba/F3 cells, the IC50 worked out at 4.62 µM. Besides, the GI50 on FLT3-ITD Ba/F3 cells stood at 0.005 µM; in assay [1] it was 0.066 µM.

On to `N#Cc1ccc(C#Cc2cc(NC(N)=O)c(C(=O)N[C@H]3CCCNC3)s2)cc1` [Example 11, (S)-5-((4-cyanophenyl)ethynyl)-N-(piperidin-3-yl)-3-ureidothiophene-2-carboxamide], for which the concentration for half-maximal inhibition (IC50) in the assay on Parental Ba/F3 cells amounted to 0.143 µM. The GI50 on FLT3-ITD Ba/F3 cells was under 0.001 µM; in assay [1] it was 0.004 µM.

Consider `NC(=O)Nc1cc(C#Cc2n[nH]c3ccccc23)sc1C(=O)N[C@H]1CCCNC1` [Example 12, (S)-5-((1H-indazol-3-yl)ethynyl)-N-(piperidin-3-yl)-3-ureidothiophene-2-carboxamide], for which the IC50 with Parental Ba/F3 cells is over 10 µM. The GI50 at FLT3-ITD Ba/F3 cells stood at 0.037 µM; in assay [1], 0.487 µM.

`NC(=O)Nc1cc(C#Cc2ccc(F)nc2)sc1C(=O)N[C@H]1CCCNC1` [Example 13, (S)-5-((6-fluoropyridin-3-yl)ethynyl)-N-(piperidin-3-yl)-3-ureidothiophene-2-carboxamide]: the IC50 in the assay with Parental Ba/F3 cells came to 2.22 µM. Moreover, the GI50 on FLT3-ITD Ba/F3 cells amounted to 0.002 µM; in assay [1], 0.022 µM.

On to `NC(=O)Nc1cc(C#Cc2ccc(F)c(F)c2)sc1C(=O)N[C@H]1CCCNC1` [Example 14, (S)-5-((3,4-difluorophenyl)ethynyl)-N-(piperidin-3-yl)-3-ureidothiophene-2-carboxamide], for which, in the assay with Parental Ba/F3 cells, the IC50 worked out at 0.269 µM. Also, the GI50 on FLT3-ITD Ba/F3 cells is under 0.001 µM; in assay [1], 0.009 µM.

`Cn1cc(C#Cc2cc(NC(N)=O)c(C(=O)N[C@H]3CCCNC3)s2)cn1` [Example 15, (S)-5-((l-methyl-1H-pyrazol-4-yl)ethynyl)-N-(piperidin-3-yl)-3-ureidothiophene-2-carboxamide trifluoroacetate]: the IC50 in the assay on Parental Ba/F3 cells turned out to be 34.6 µM. Besides, the GI50 at FLT3-ITD Ba/F3 cells was found to be 0.028 µM; in assay [1], 0.216 µM.

On to `NC(=O)Nc1cc(C#Cc2ccc(C(F)(F)F)cc2)sc1C(=O)N[C@H]1CCCNC1` [Example 16, ((S)—N-(piperidin-3-yl)-5-((4-(trifluoromethyl)phenyl)ethynyl)-3-ureidothiophene-2-carboxamide trifluoroacetate], for which, in the assay on Parental Ba/F3 cells, the IC50 is 14.8 µM. The GI50 came to 0.006 µM at FLT3-ITD Ba/F3 cells and 0.335 µM in assay [1].

On to `NC(=O)Nc1cc(C#Cc2ccc(C(F)(F)F)nc2)sc1C(=O)N[C@H]1CCCNC1` [Example 17, (S)—N-(piperidin-3-yl)-5-((6-(trifluoromethyl)pyridin-3-yl)ethynyl)-3-ureidothiophene-2-carboxamide], for which the IC50 in the assay with Parental Ba/F3 cells was 2.37 µM. Also, the values for the GI50 (on FLT3-ITD Ba/F3 cells; in assay [1]) were under 0.005 µM and 0.069 µM, respectively.

For the compound `COC(=O)c1ccc(C#Cc2cc(NC(N)=O)c(C(=O)N[C@H]3CCCNC3)s2)cc1` [Example 18, methyl (S)-4-((5-(piperidin-3-ylcarbamoyl)-4-ureidothiophen-2-yl)ethynyl)benzoate trifluoroacetate], the IC50 in the assay on Parental Ba/F3 cells is 0.454 µM. For the same compound, the results for the GI50 (at FLT3-ITD Ba/F3 cells; in assay [1]) were 0.003 µM and 0.023 µM, respectively.

(Values after US10442796B2, “2,3,5-substituted thiophene compound as protein kinase inhibitor” (KOREA INSTITUTE OF SCIENCE AND TECHNOLOGY, priority 2016, dated 2019).)
